The values below come from ChEMBL document CHEMBL1201862, “PubChem BioAssay data set” (2004).

Calls of active or inactive are those of the source. Cut-off read from the data, not from the text of the source: actives have a measured EC50 and inactives only a lower limit.

The target of one test is Luciferin 4-monooxygenase (Photinus pyralis, UniProt P08659). As to the kind of experiment: inhibition of purified Photinus pyralis luciferase – biochemical, luminescence, dose response (AID 1891).
Luciferin 4-monooxygenase, sequence (P08659 whole entry): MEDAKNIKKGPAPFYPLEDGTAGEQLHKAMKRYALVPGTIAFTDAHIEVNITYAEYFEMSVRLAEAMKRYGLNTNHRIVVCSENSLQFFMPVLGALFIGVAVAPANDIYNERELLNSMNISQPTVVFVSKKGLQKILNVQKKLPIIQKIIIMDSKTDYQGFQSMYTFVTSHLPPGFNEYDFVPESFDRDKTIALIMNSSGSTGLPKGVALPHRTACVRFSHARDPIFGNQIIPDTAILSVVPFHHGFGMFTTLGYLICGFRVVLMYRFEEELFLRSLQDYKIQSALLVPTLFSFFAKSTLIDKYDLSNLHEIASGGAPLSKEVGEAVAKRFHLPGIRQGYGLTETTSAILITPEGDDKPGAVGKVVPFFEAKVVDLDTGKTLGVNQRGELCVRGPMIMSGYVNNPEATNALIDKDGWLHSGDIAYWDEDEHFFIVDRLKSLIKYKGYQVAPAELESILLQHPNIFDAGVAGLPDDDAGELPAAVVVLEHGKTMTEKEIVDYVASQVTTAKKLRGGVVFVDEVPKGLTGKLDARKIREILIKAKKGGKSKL
Conditions: not given
As to `CCCC(=O)C1=C(N2CCCCC2)CC(C)(C)C(C(=O)OC)C1=O` (stereo unspecified), the EC50 was > 112 µM (not active).
Same read-out and setting: for `CCOC(=O)C1CCCN(C(=O)c2ccc3oc(Cc4ccccc4)nc3c2)C1` (stereo unspecified) the value was > 112 µM (not active); for `COC(=O)Cn1/c(=N/C(=O)CSC(C)=O)sc2ccccc21`, > 112 µM (not active); for `COc1ccc(S(=O)(=O)N(Cc2cccnc2)Cc2cc3ccccc3nc2O)cc1`, > 112 µM (not active).
On the same count and under the same terms, for `C=CCN1C(=O)/C(=C2/Sc3ccccc3N2C)S/C1=N\c1c(C)n[nH]c1C` the value was > 112 µM (not active).

System in a further test: not listed separately
As to the kind of experiment: cells. Format: functional, cell-based.
Conditions: not given
Take `C=CCOc1ccc(/C=C2\SC(N)=NC2=O)cc1OC`: the EC50 was > 350 µM (not active).
Still for that read-out and setting: for `Cn1c(CCNC(=O)c2ccco2)nc2cc(NC(=O)C3CCCCC3)ccc21` the value was 97.8 µM (active).
For the compound `Cc1ccc2nc3c(O)n(CC(=O)NCCCN(C)Cc4ccccc4)ncc-3c2c1`, the EC50 is on record as > 350 µM (not active).
On the same count and under the same terms, for `O=[N+]([O-])c1ccc(/N=C/c2ccc(Br)c([N+](=O)[O-])c2)cc1` the value was > 350 µM (not active); for `COc1ccccc1OCc1nnc(SCC(=O)NCc2ccco2)n1-c1ccccc1`, > 350 µM (not active).
Turning to `O=C(/C=C/c1cn(-c2ccccc2)nc1-c1ccccc1)Nc1ccc(C(=O)O)cc1`, the EC50 is 24.8 µM (active).

The next test concerns Streptococcus sp. 'group A'. As to the kind of experiment: Streptococcus pyogenes SK(-)GAS viability under kanamycin – luminescence, BacTiterGlo, confirmation, counter-screen for streptokinase expression inhibitor project, dose response (AID 1900). In kind it is functional, organism-based. As to conditions: Streptococcus sp. 'group A'. On the technique in general: A counterscreen serves to expose hits that act by an unwanted route or on another target.
For `O=C(/C=C/c1cn(-c2ccccc2)nc1-c1ccccc1)Nc1ccc(C(=O)O)cc1`, the EC50 is 6.15 µM (active).

System in a further test: not listed separately
As to the kind of experiment: Luminescence Cell-Based Dose Response HTS to Identify Activators of Luciferase Translation or Activity in H4 […] Cells. [Related pubchem assays: 1829 (Project Summary), 1814 (Primary HTS)].
Conditions: not given
In kind it is functional.
As for `CCOC(=O)C1CCCN(C(=O)c2ccc3oc(Cc4ccccc4)nc3c2)C1` (stereo unspecified), the EC50 is 16.2 µM (active).

The target in another test is T1, Streptokinase A (Streptococcus pyogenes serotype M1, UniProt P10520).
T1 sequence (P10520 whole entry): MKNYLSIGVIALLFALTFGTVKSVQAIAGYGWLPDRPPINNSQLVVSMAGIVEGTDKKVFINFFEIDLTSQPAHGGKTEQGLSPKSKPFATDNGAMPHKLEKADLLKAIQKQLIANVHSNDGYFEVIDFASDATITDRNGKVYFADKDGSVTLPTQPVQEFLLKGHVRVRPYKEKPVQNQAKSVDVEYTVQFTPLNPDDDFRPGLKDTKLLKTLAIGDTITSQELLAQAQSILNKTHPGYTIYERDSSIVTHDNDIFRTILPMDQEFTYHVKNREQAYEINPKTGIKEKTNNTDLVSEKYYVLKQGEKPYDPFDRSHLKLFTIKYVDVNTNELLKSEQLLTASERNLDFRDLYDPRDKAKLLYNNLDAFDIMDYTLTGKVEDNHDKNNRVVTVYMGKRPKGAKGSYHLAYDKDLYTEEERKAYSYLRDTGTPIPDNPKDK
As to the kind of experiment: viability-normalized secreted streptokinase activity reduction – plasminogen activation absorbance, OD405, dose response (AID 1914).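 Note: secreted streptokinase activity via plasminogen activation per viability signal from cell pellet.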 In kind it is functional, Streptococcus pyogenes M1 GAS.
Conditions: not given
Regarding `O=C(/C=C/c1cn(-c2ccccc2)nc1-c1ccccc1)Nc1ccc(C(=O)O)cc1`, the EC50 was > 150 µM (not active).

System in a further test: not listed separately
As to the kind of experiment: cells. Format: functional, cell-based.
Conditions: not given
The source holds these as a separate data set.
Regarding `C=CCOc1ccc(/C=C2\SC(N)=NC2=O)cc1OC`, the EC50 is listed as > 350 µM (not active).
Same read-out and setting: for `Cn1c(CCNC(=O)c2ccco2)nc2cc(NC(=O)C3CCCCC3)ccc21` the value was > 350 µM (not active); for `Cc1ccc2nc3c(O)n(CC(=O)NCCCN(C)Cc4ccccc4)ncc-3c2c1`, > 350 µM (not active); for `O=[N+]([O-])c1ccc(/N=C/c2ccc(Br)c([N+](=O)[O-])c2)cc1`, > 350 µM (not active).
The same measure, in the same setting: for `COc1ccccc1OCc1nnc(SCC(=O)NCc2ccco2)n1-c1ccccc1` the value was > 350 µM (not active); for `O=C(/C=C/c1cn(-c2ccccc2)nc1-c1ccccc1)Nc1ccc(C(=O)O)cc1`, > 350 µM (not active).

A further test deals with Streptococcus. As to the kind of experiment: GAS UMAA2166 growth inhibition – luminescence, BacTiterGlo, counter-screen for streptokinase expression inhibitor project, dose response (AID 1915).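 Note: potency for reduction of bacterial viability or growth.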 Format: functional, organism-based. The conditions noted are these: Streptococcus.
Regarding `O=C(/C=C/c1cn(-c2ccccc2)nc1-c1ccccc1)Nc1ccc(C(=O)O)cc1`, the EC50 was 15.5 µM (active).

The target of a further test is T2, Corticotropin-releasing factor receptor 2/Corticotropin-releasing factor-binding protein (Homo sapiens, UniProt P24387+Q13324).
T2 sequence (Q13324 whole entry): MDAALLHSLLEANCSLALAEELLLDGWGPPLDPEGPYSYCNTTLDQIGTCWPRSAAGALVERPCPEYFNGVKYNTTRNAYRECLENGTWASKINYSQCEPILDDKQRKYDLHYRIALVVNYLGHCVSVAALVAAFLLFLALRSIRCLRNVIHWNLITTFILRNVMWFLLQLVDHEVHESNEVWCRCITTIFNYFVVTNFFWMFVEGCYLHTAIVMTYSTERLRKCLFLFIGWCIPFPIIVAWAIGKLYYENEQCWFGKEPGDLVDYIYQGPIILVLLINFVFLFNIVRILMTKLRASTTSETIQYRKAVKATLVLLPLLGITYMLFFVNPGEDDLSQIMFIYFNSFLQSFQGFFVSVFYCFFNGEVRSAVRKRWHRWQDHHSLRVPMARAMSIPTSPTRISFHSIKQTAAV
T2 sequence (P24387 whole entry): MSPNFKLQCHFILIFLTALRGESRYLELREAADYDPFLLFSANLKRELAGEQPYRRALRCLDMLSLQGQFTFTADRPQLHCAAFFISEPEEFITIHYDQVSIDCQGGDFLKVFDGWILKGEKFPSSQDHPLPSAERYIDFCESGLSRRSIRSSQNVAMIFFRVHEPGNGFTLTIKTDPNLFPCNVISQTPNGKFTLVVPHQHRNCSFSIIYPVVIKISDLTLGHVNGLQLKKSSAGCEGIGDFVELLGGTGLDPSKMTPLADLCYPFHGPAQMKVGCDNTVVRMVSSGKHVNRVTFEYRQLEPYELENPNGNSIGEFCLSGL
As to the kind of experiment: activators of CRF receptor 2 with binding protein – uHTS hits, confirmation (AID 602473). In kind it is functional. As to conditions: read-out: EC50_Mean.
In the case of `CC1(C)C[C@H](O)[C@@]23C[C@@H](OC2=O)[C@]2(C)C(=CCC4[C@@]5(C)CC[C@H](O)C(C)(C)C5CC[C@]42C)[C@@H]3C1` (stereo partly specified), the EC50 was 5.32 µM (active).
Consider `CC(=O)Nc1ccc(CN2CCCC(CO)(Cc3cccc(Cl)c3)C2)cc1` (stereo unspecified), for which the EC50 was > 53 µM (inactive).
Same read-out and setting: for `CC(=O)c1cc(NC(=O)c2ccc(C)cc2)c(=O)oc1/C=C/N(C)C` the value was 6.73 µM (active).

System in a further test: not listed separately
As to the kind of experiment: Luminescence Cell-Based Dose Confirmation HTS to Identify Inhibitors of Platelet Dense Granule Release. [Related pubchem assays: 1663 (Primary HTS), 1678 (Summary of Project)]. Format: functional.
Conditions: not given
Regarding `CCCC(=O)C1=C(N2CCCCC2)CC(C)(C)C(C(=O)OC)C1=O` (stereo unspecified), the EC50 was > 112 µM (not active).
Same read-out and setting: for `CCOC(=O)C1CCCN(C(=O)c2ccc3oc(Cc4ccccc4)nc3c2)C1` (stereo unspecified) the value was > 112 µM (not active); for `COC(=O)Cn1/c(=N/C(=O)CSC(C)=O)sc2ccccc21`, > 112 µM (not active).
On the same count and under the same terms, for `COc1ccc(S(=O)(=O)N(Cc2cccnc2)Cc2cc3ccccc3nc2O)cc1` the value was > 112 µM (not active).
On the same count and under the same terms, for `C=CCN1C(=O)/C(=C2/Sc3ccccc3N2C)S/C1=N\c1c(C)n[nH]c1C` the value was 17.5 µM (active).

System in a further test: not listed separately
As to the kind of experiment: Luminescence Cell-Based Dose Confirmation HTS to Identify Activators of 5'UTR Stem-Loop Driven Alpha-Synuclein mRNA Translation in H4 Neuroglioblastoma Cells. [Related pubchem assays: 1829 (Project Summary), 1814 (Primary HTS)].
Conditions: not given
In kind it is functional.
With `CCOC(=O)C1CCCN(C(=O)c2ccc3oc(Cc4ccccc4)nc3c2)C1` (stereo unspecified), the EC50 is 13.9 µM (active).

A further test has as its system H4. As to the kind of experiment: Luminescence Cell-Based Dose Response HTS to Identify Activators of 5'UTR Stem-Loop Driven Prion Protein mRNA Translation in H4 Neuroglioblastoma Cells. [Related pubchem assays: 1829 (Project Summary), 1814 (Primary HTS)]. Format: functional. The conditions noted are these: Homo sapiens.
As for `CCOC(=O)C1CCCN(C(=O)c2ccc3oc(Cc4ccccc4)nc3c2)C1` (stereo unspecified), the EC50 was 36.4 µM (active).
